Measurements as given in patent US20250154686A1, “COMPOUND LIBRARY” (CHUGAI SEIYAKU KABUSHIKI KAISHA, priority 2021, published 2025).

How the values were obtained:
[1] = molecular target: T1, Bcl-2 protein (Recombinant Human Bcl-2 Protein) (Homo sapiens, UniProt P10415); assay: AS-MS evaluation of binding of the mixture libraries of Examples 8 and 9 to Bcl-2, ASMS ratio (%), Example 11; conditions: for AS-MS(%) N1 / AS-MS(%) N2 / AS-MS(%) N3 / AS-MS(%) N4: ASMS ratio, mixtures obtained from Example 9, 10 uM Bcl-2 protein; for AS-MS(%) N1: replicate N1; for AS-MS(%) N2: replicate N2; for AS-MS(%) N3: replicate N3 (additional day); for AS-MS(%) N4: replicate N4 (additional day); for binding to Bcl-2 detected by AS-MS: positive controls added to the mixtures of Examples 8 and 9, final compound concentration 100 nM
T1 construct: purchased Novus Biologicals NBP2-34889
Method: DMSO solutions (prepared into approximately 5 mM based on calculation from the average molecular weight of each mixture) of the mixtures of each Example shown in Table 11-1-1 were respectively dispensed to 8 wells of MICROPLATE, 96-WELL, PP, V-BOTTOM (Greiner Bio-One International GmbH, 651201). 400 nL each from the 8 wells of the mixtures obtained from Example 8 was dispensed into 3 designated wells while 200 nL each from the 8 wells of the mixtures obtained from Example 9 was dispensed into 3 designated wells, using LABCYTE ECHO® 555 acoustic dispensing system (Beckman Coulter, Inc.). 200 nL each of two types of 10 μM positive controls (B2Q045-01 and B2Q048-01) was dispensed to the mixtures obtained from Example 8. Likewise, 100 nL each of two types of 20 μM positive controls and 400 nL of a DMSO solution by backfill was dispensed to the mixtures obtained from Example 9. Further, Bcl-2 protein (Novus Biologicals, NBP2-34889, Recombinant Human Bcl-2 Protein, Lot E60145051) (19.2 μL) prepared at 5 µM (final protein concentration) for the mixtures obtained from Example 8 and 10 µM (final protein concentration) for the mixtures obtained from Example 9, in advance using a Tris-HCl buffer (25 mM Tris-HCl, pH 7.4, 150 mM NaCl, 0.025% Tween-20, and 1 mM DTT) was added to the well containing the dispensed 1000 compounds or 500 compounds (final compound concentration: 100 nM), and the plate was incubated at 23° C. for 1 hour in the dark. Subsequently, 200 μL of an assay buffer (25 mM Tris-HCl, pH 7.4, 150 mM NaCl, 0.025% Tween-20, and 1 mM DTT) was centrifuged three times at 2000×G at 4° C. for 2 minutes using 96-well MacroSpin column, P-2 Material (Harvard Bioscience, Inc., 74-5655) that had been allowed to swell to condition the 96-well MacroSpin column. Subsequently, 20 μL of the sample thus incubated was added to the 96-well MacroSpin column, P-2 Material after the completion of conditioning, and SEC treatment was performed by centrifugation at 2000×G for 2 minutes. 32 μL of a 1:1 mixed solution of acetonitrile and methanol (LC/MS grade, FUJIFILM Wako Pure Chemical Corp.) was added to a flow-through liquid from SEC, and the mixture was centrifuged at 1800×G at 4° C. for 5 minutes. The supernatant was used as analysis sample ASMS (A). By a similar operation, a sample prepared at 500 compounds/well or 1000 compounds/well and supplemented with only a Tris-HCl buffer containing no Bcl-2 protein was incubated under the same conditions as above, and the same organic solvent as above was added thereto without 96-well MacroSpin column treatment. A supernatant obtained by a centrifugation operation was used as STD (B). Next, by a similar operation, a sample prepared at 1000 compounds/well or 500 compounds/well and supplemented with only a Tris-HCl buffer containing no Bcl-2 protein was incubated under the same conditions as above and treated with 96-well MacroSpin column in the same manner as above, and the same organic solvent as above was added thereto. A supernatant obtained by a centrifugation operation was used as BK (C). These samples were measured by reverse-phase LC/MS.
Then, the samples A, B and C were analyzed for the 1000 compounds or 500 compounds using TraceFinder 5.1 (Thermo Fisher Scientific Inc.) and CHANCE Software (in-house), and an ASMS ratio (%) was calculated according to the following expression.
The mixtures obtained from Example 8 were tested at the number of data of 2 (N1 and N2) in order to ensure reproducibility. The mixtures obtained from Example 9 were tested at the total number of data 4 (N1,N2, N3, and N4) involving the number of data of 2/day (N1 and N2) and data obtained on additional days.

Human Bcl-2 protein = molecular target: T2, Human Bcl-2 protein (Homo sapiens, UniProt P10415); assay: Evaluation of binding of compound to Bcl-2 by surface plasmon resonance (SPR)-2, Example 13; conditions: for Kd: Biacore T200, biotinylated Bcl-2 immobilized on Sensor Chip SA, 15° C., read-out: Equilibrium dissociation constant KD; for equilibrium dissociation constant KD compared with B2Q045-01 (KD=1.20 μM) or B2Q048-01 (KD=0.480 μM): Biacore T200, 15° C.
T2 construct: purchased Novus Biologicals
Method: A surface plasmon resonance method was used in order to analyze the binding affinity of the compounds synthesized in Example 12 for Bcl-2, which are shown in Table 13-1. The apparatus used was Biacore T200 (GE Healthcare Japan Corp.), and the running buffer used was HBS (10 mM HEPES-NaOH and 150 mM NaCl, pH 7.4) supplemented with 1 mM DTT, 3 mM EDTA, 0.01% Tween 20 and 4% DMSO. Human Bcl-2 protein (Novus Biologicals) was biotinylated using EZ-Link NHS-PEG4-Biotin (Thermo Fisher scientific Inc.) and immobilized on the surface of Sensor Chip SA (Cytiva). Then, compound solutions having a plurality of concentrations and the running buffer (blank) were added to the Bcl-2-immobilized surface to obtain the binding response of the compounds. Measurement was performed at 15° C.
The obtained sensorgrams were treated with Biacore T200 Evaluation Software, and the equilibrium dissociation constant KD of each compound for Bcl-2 was determined as shown in the following Table 13-2.

[2] = molecular target: T1, Bcl-2 protein (Recombinant Human Bcl-2 Protein); assay: AS-MS evaluation of binding of the Example 4 mixture library (1200 compounds/well) to Bcl-2, ASMS ratio (%)
In short: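 Affinity-selection MS: after spin-column size exclusion and organic extraction, LC/MS signals give an ASMS ratio (%), referenced to protein-free samples with and without column treatment. Binding step combined 20 μM human Bcl-2 with the 1200-compound pool at 20 nM per compound, 1 h, 23° C., dark, pH 7.4 Tris-HCl/NaCl/Tween-20/DTT.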

[3] = AS-MS, mixture of 1200 compounds/well, Bcl-2 protein, replicate n = 1
[4] = AS-MS, mixture of 1200 compounds/well, Bcl-2 protein, replicate n = 2
[5] = Example 4 mixture library, 1200 compounds/well, Bcl-2 protein, replicate n = 1, value belongs to the MS peak assignable to the compound
[6] = Example 4 mixture library, 1200 compounds/well, Bcl-2 protein, replicate n = 2, value belongs to the MS peak assignable to the compound

T1 sequence (P10415 whole entry): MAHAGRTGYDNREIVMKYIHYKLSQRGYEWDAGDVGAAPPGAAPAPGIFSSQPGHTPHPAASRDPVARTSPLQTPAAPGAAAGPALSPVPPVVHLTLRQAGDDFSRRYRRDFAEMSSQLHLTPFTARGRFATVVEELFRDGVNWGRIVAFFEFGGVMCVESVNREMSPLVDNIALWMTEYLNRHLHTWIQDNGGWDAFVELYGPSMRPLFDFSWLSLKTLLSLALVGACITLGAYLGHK
T2 sequence (P10415 whole entry): as above

AS-MS(%) N1 [1] | AS-MS(%) N2 [1] | AS-MS(%) N3 [1] | AS-MS(%) N4 [1] | Kd (Human Bcl-2 protein) | Structure (SMILES) | also measured
34.2% | 33.3% | 44.4% | 38.0% | 7.91 µM | CC(C(=O)Nc1ccccc1)c1cc(O)cc(N2CCN(c3ccc(C(=O)NS(=O)(=O)c4ccc(NCCSc5ccccc5)c([N+](=O)[O-])c4)cc3)CC2)c1 (stereo not drawn) [2-2-d1E03-1-0417] | –
34.7% | 33.4% | 39.2% | 38.2% | 15.2 µM | CC(C(=O)Nc1ccc(F)cc1)c1cc(O)cc(N2CCN(c3ccc(C(=O)NS(=O)(=O)c4ccc(NCCSc5ccccc5)c([N+](=O)[O-])c4)cc3)CC2)c1 (stereo not drawn) [2-2-d1E03-1-0454] | –
28.9% | 38.1% | 35.6% | 39.3% | 5.34 µM | CC(C(=O)Nc1nc2ccccc2s1)c1cc(O)cc(N2CCN(c3ccc(C(=O)NS(=O)(=O)c4ccc(NCCSc5ccccc5)c([N+](=O)[O-])c4)cc3)CC2)c1 (stereo not drawn) [2-2-d1E03-1-0495] | –
70.3% | 77.8% | 72.8% | 71.8% | 0.582 µM | CC(C(=O)Nc1ccccc1)c1cc(O)cc(N2CCN(c3ccc(C(=O)NS(=O)(=O)c4ccc(N[C@H](CCN5CCOCC5)CSc5ccccc5)c([N+](=O)[O-])c4)cc3)CC2)c1 (stereo partly drawn) [2-2-d1E04-1-0417] | equilibrium dissociation constant KD compared with B2Q045-01 (KD=1.20 μM) or B2Q048-01 (KD=0.480 μM) (Human Bcl-2 protein): smaller equilibrium dissociation constant KD
57.8% | 68.3% | 60.9% | 58.1% | 0.775 µM | Cc1ccc(NC(=O)C(C)c2cc(O)cc(N3CCN(c4ccc(C(=O)NS(=O)(=O)c5ccc(N[C@H](CCN6CCOCC6)CSc6ccccc6)c([N+](=O)[O-])c5)cc4)CC3)c2)cc1 (stereo partly drawn) [2-2-d1E04-1-0446] | equilibrium dissociation constant KD compared with B2Q045-01 (KD=1.20 μM) or B2Q048-01 (KD=0.480 μM) (Human Bcl-2 protein): smaller equilibrium dissociation constant KD
– | – | – | – | – | CCOc1cccc(-c2ccccc2CN2CCN(c3ccc(C(=O)NS(=O)(=O)c4ccc(NCCSc5ccccc5)c([N+](=O)[O-])c4)cc3)CC2)c1 [Compound B2Q045-01, 4-[4-[[2-(3-ethoxyphenyl)phenyl]methyl]piperazin-1-yl]-N-[3-nitro-4-(2-phenylsulfanylethylamino)phenyl]sulfonylbenzamide] | binding to Bcl-2 detected by AS-MS [1]: binding to Bcl-2 was detected
– | – | – | – | – | CCOc1cncc(-c2ccccc2CN2CCN(c3ccc(C(=O)NS(=O)(=O)c4ccc(NCCSc5ccccc5)c([N+](=O)[O-])c4)cc3)CC2)c1 [Compound B2Q046-01, 4-[4-[[2-(5-ethoxypyridin-3-yl)phenyl]methyl]piperazin-1-yl]-N-[3-nitro-4-(2-phenylsulfanylethylamino)phenyl]sulfonylbenzamide] | binding to Bcl-2 detected by AS-MS [1]: binding to Bcl-2 was detected
– | – | – | – | – | CCOc1cncc(-c2ccc(C(C)N3CCN(c4ccc(C(=O)NS(=O)(=O)c5ccc(NCCSc6ccccc6)c(C(F)(F)F)c5)cc4)CC3)c(F)c2)c1 (stereo not drawn) [Compound B2R100-01, 4-[4-[1-[4-(5-Ethoxypyridin-3-yl)-2-fluorophenyl]ethyl]piperazin-1-yl]-N-[4-(2-phenylsulfanylethylamino)-3-(trifluoromethyl)phenyl]sulfonylbenzamide] | ASMS ratio (%) n = 1 ([2]; AS-MS, Example 4 mixture library, Bcl-2, replicate n = 1): 0.6%; ASMS ratio (%) n = 2 ([2]; AS-MS, Example 4 mixture library, Bcl-2, replicate n = 2): 10.1%
– | – | – | – | – | CCOc1cccc(C#Cc2cc(C(=O)N3CCN(c4ccc(C(=O)N(C)CC56CC7CC(CC(C7)C5)C6)nn4)CC3)cc(C(F)(F)F)c2)c1 [Compound B3A019-01, N-(1-Adamantylmethyl)-6-[4-[3-[2-(3-ethoxyphenyl)ethynyl]-5-(trifluoromethyl)benzoyl]piperazin-1-yl]-N-methylpyridazine-3-carboxamide] | ASMS ratio (%) n = 1 [2, 3]: 2.6%; ASMS ratio (%) n = 2 [2, 4]: −2.3%
– | – | – | – | – | CCOc1cncc(C#Cc2cc(C(=O)N3CCN(c4ccc(C(=O)N(C)CC56CC7CC(CC(C7)C5)C6)nn4)CC3)cc(C(F)(F)F)c2)c1 [Compound B3A020-01, N-(1-Adamantylmethyl)-6-[4-[3-[2-(5-ethoxypyridin-3-yl)ethynyl]-5-(trifluoromethyl)benzoyl]piperazin-1-yl]-N-methylpyridazine-3-carboxamide] | ASMS ratio (%) n = 1 [2, 3]: 7.5%; ASMS ratio (%) n = 2 [2, 4]: −3.2%
– | – | – | – | – | CCOc1cncc(-c2ccc(C(=O)N3CCN(c4ccc(C(=O)N(CC)CC)nn4)CC3)cc2F)c1 [Compound B4J006-01, 6-[4-[4-(5-Ethoxypyridin-3-yl)-3-fluorobenzoyl]piperazin-1-yl]-N,N-diethylpyridazine-3-carboxamide] | ASMS ratio (%) n = 1 [2, 5]: 0.0%; ASMS ratio (%) n = 2 [2, 6]: 0.0%
– | – | – | – | – | CCOc1cccc(-c2cc(OC)c(CN3CCN(c4ccc(C(=O)N(CC)CC)cc4)CC3)c(OC)c2)c1 [Compound B4J059-01, 4-[4-[[4-(3-Ethoxyphenyl)-2,6-dimethoxyphenyl]methyl]piperazin-1-yl]-N,N-diethylbenzamide] | ASMS ratio (%) n = 1 [2, 5]: −0.1%; ASMS ratio (%) n = 2 [2, 6]: −6.0%
– | – | – | – | – | CCOc1cncc(-c2cc(OC)c(CN3CCN(c4ccc(C(=O)N(CC)CC)cc4)CC3)c(OC)c2)c1 [Compound B4J060-01, 4-[4-[[4-(5-Ethoxypyridin-3-yl)-2,6-dimethoxyphenyl]methyl]piperazin-1-yl]-N,N-diethylbenzamide] | ASMS ratio (%) n = 1 [2, 5]: 0.0%; ASMS ratio (%) n = 2 [2, 6]: 0.0%
– | – | – | – | – | CCOc1cccc(-c2ccc(CN3CCN(c4ccc(C(=O)N(CC)CC)nn4)CC3)cc2F)c1 [Compound B4J077-01, 6-[4-[[4-(3-Ethoxyphenyl)-3-fluorophenyl]methyl]piperazin-1-yl]-N,N-diethylpyridazine-3-carboxamide] | ASMS ratio (%) n = 2 [2, 6]: 5.5%
